Read-outs that look alike come from different tables or passages of the source.
Tests used:
[1] = system: Mycobacterium tuberculosis rpoB gene mutants; design: key to DRUG-SUSCEPTIBILITY: R represents resistance; S represents susceptibility; conditions: cited from earlier work
[2] = system: Mycobacterium tuberculosis; assay type: cell-based

| SMILES | DRUG-SUSCEPTIBILITY ([1]; 509 MUTANT (probe Mt509)) | DRUG-SUSCEPTIBILITY ([1]; 509 WILD TYPE (probe Wt509)) | DRUG-SUSCEPTIBILITY ([1]; 524 MUTANT (probe Mt524)) | DRUG-SUSCEPTIBILITY ([1]; 524 WILD TYPE (probe Wt524)) | DRUG-SUSCEPTIBILITY ([1]; 533 MUTANT (probe Mt533)) | DRUG-SUSCEPTIBILITY ([1]; 533 WILD TYPE (probe Wt533)) | drug-susceptibility of codon 526 mutants ([1]; codon 526 His>Gln, Gly, Asn, Ala, or Cys) | drug-susceptibility of codon 526 mutants ([1]; codon 526 His>Tyr, Pro, Arg, or Asp) | drug-susceptibility test result [2] |
| --- | --- | --- | --- | --- | --- | --- | --- | --- | --- |
| CO[C@H]1/C=C/O[C@@]2(C)Oc3c(C)c(O)c4c(c3C2=O)C2=NC3(CCN(CC(C)C)CC3)NC2=C(NC(=O)/C(C)=C\C=C\[C@H](C)[C@H](O)[C@@H](C)[C@@H](O)[C@@H](C)[C@H](OC(C)=O)[C@@H]1C)C4=O [rifabutin, Rifabutin] | S | RFP-S, RBU-S | RFP-R, RBU-R | RFP-S, RBU-S | RFP-R, RBU-R | RFP-S, RBU-S | susceptibility | resistance |  |
| CO[C@H]1/C=C/O[C@@]2(C)Oc3c(C)c(O)c4c(O)c(c(/C=N/N5CCN(C)CC5)c(O)c4c3C2=O)NC(=O)/C(C)=C\C=C\[C@H](C)[C@H](O)[C@@H](C)[C@@H](O)[C@@H](C)[C@H](OC(C)=O)[C@@H]1C [rifampin] | R | RFP-S, RBU-S | RFP-R, RBU-R | RFP-S, RBU-S | RFP-R, RBU-R | RFP-S, RBU-S |  |  | resistance |

Source: patent US20040038233A1, “Diagnosis kit for mycobacterium species indentification and drug-resistance detection and manufacturing method thereof” (priority 2000, published 2004)
